According to patent publication US20110118298A1, “COMPOSITIONS, KITS, AND METHODS FOR IDENTIFICATION, ASSESSMENT, PREVENTION, AND THERAPY OF CANCER” (INFINITY PHARMACEUTICALS, INC., priority 2009, published 2011):
Counter-ions that a name gives are not always drawn.

Assays:
[1] = tested on: HCT-116 (G13D mutant KRAS) xenograft; experiment: HCT-116 xenograft, 17-AG, Irinotecan and combination; format: in vivo, nude mice; conditions: single agents 100 mg/kg
Method: In the seventh set of studies, subcutaneous xenografts of HCT-116 (G13D mutant KRAS) colorectal tumor model were established by implantation of 10×10^6 cells into the right flank of nude mice. Once tumors reached approximately 100-150 mm^3, animals were randomized into treatment groups and administered either vehicle or a suspension of 50% 17-AG in HPMC-AS-HG dispersion in vehicle (1% hydroxyethylcellulose, 5% glycerol) (100 mg/kg, M-W-F, 3 weeks), Irinotecan (100 mg/kg, Q7D, 3 weeks) or the combination of a suspension of 50% 17-AG in HPMC-AS-HG dispersion in vehicle (1% hydroxyethylcellulose, 5% glycerol) (50 mg/kg, M-W-F) and Irinotecan (75 mg/kg, Q7D) for three weeks, and tumor volume measured twice per week (FIG. 27A; FIG. 27B is a zoomed-in section of FIG. 27A). At the end of the dosing period, animals were monitored for an additional 21 days to follow tumor growth delay.

[2] = Phase II study of IPI-504 monotherapy in advanced NSCLC: adverse events and laboratory abnormalities; format: in vivo, human
Method: Treatment consisted of a 30-minute infusion of intravenous IPI-504 on days 1, 4, 8 and 11 of a 21-day cycle. Therapy continued until progressive disease (PD), intolerable side effects, or elective withdrawal. A total of 76 patients were enrolled. The starting dose was 400 mg/m^2 for 75 patients. In April 2009, the dose for patients who were on study (19 patients) was lowered to 225 mg/m^2, due to hepatotoxicities observed at the 400 mg/m^2 dose in a separate trial of IPI-504 in patients with gastrointestinal stromal tumors (GIST) (Demetri G. D. et al. Final results from a phase III study of IPI-504 (retaspimycin hydrochloride) versus placebo in patients with gastrointestinal stromal tumors (GIST) following failure of kinase inhibitor therapies. Paper presented at: Gastrointestinal Cancers Symposium; Jan. 22-24, 2010, 2010; Orlando, Fla.), and the last enrolled patient started at a dose of 225 mg/m^2.
All patients were assessed for safety by history, physical examination, blood chemistries, liver function tests and blood counts, at baseline and prior to each infusion. Amylase and lipase were assessed if there were symptoms of pancreatitis. Adverse events were graded using the NCl common toxicity criteria version 3.0 (NCl. Common terminology criteria for adverse events (CTCAE) version 3.0 Aug. 9, 2006). Slit lamp eye examinations were performed during screening and electrocardiograms were obtained during screening and before and after the first infusion, to evaluate for keratitis and QTc prolongation, respectively. Radiographic evaluation of tumor response by CT-scan was performed after every 2 cycles. All films were reviewed and independently assessed by a central radiology core laboratory.
Summary statistics were used to describe safety and included all patients treated with IPI-504. PFS was defined as the time from enrollment to progressive disease or death, censored at the last known follow-up, and was calculated with the Kaplan-Meier method, following the intent-to-treat principle.

[3] = maximum post-baseline grade based on laboratory values

CO[C@H]1/C=C\C=C(/C)C(=O)NC2=CC(=O)C(N)=C(C[C@@H](C)C[C@H](OC)[C@H](O)[C@@H](C)/C=C(\C)[C@@H]1OC(N)=O)C2=O [IPI-493, 17-AG]
average tumor growth inhibition while on drug ([1]; combination 17-AG 50 mg/kg M-W-F + Irinotecan 75 mg/kg Q7D): ~75%
delay in tumor progression in re-growth phase ([1]; combination 50 + 75 mg/kg): no delay in tumor progression

C=CCNc1c(O)cc2c(O)c1C[C@@H](C)C[C@H](OC)[C@H](O)[C@@H](C)/C=C(\C)[C@H](OC(N)=O)[C@@H](OC)/C=C\C=C(/C)C(=O)N2 [IPI-504, retaspimycin hydrochloride]
Abdominal pain: patients with Grade 1 or 2 event ([2]; 76 patients): 18 (23.7) n (%)
Abdominal pain: patients with any event ([2]; 76 patients): 18 (23.7) n (%)
Abdominal pain: patients with ≧Grade 3 event ([2]; 76 patients): 1 (1.3) n (%)
Anorexia: patients with Grade 1 or 2 event ([2]; 76 patients): 18 (23.7) n (%)
Anorexia: patients with any event ([2]; 76 patients): 19 (25.0) n (%)
Anorexia: patients with ≧Grade 3 event ([2]; 76 patients): 4 (5.3) n (%)
Arthralgia: patients with Grade 1 or 2 event ([2]; 76 patients): 17 (22.4) n (%)
Arthralgia: patients with any event ([2]; 76 patients): 19 (25.0) n (%)
Arthralgia: patients with ≧Grade 3 event ([2]; 76 patients): 2 (2.6) n (%)
Back pain: patients with Grade 1 or 2 event ([2]; 76 patients): 16 (21.1) n (%)
Back pain: patients with any event ([2]; 76 patients): 16 (21.1) n (%)
Back pain: patients with ≧Grade 3 event ([2]; 76 patients): 0 (0.0) n (%)
Constipation: patients with Grade 1 or 2 event ([2]; 76 patients): 18 (23.7) n (%)
Constipation: patients with any event ([2]; 76 patients): 18 (23.7) n (%)
Constipation: patients with ≧Grade 3 event ([2]; 76 patients): 2 (2.6) n (%)
Cough: patients with Grade 1 or 2 event ([2]; 76 patients): 24 (31.6) n (%)
Cough: patients with any event ([2]; 76 patients): 24 (31.6) n (%)
Cough: patients with ≧Grade 3 event ([2]; 76 patients): 2 (2.6) n (%)
Dehydration: patients with Grade 1 or 2 event ([2]; 76 patients): 11 (14.5) n (%)
Dehydration: patients with any event ([2]; 76 patients): 14 (18.4) n (%)
Dehydration: patients with ≧Grade 3 event ([2]; 76 patients): 3 (3.9) n (%)
Diarrhoea: patients with Grade 1 or 2 event ([2]; 76 patients): 37 (48.7) n (%)
Diarrhoea: patients with any event ([2]; 76 patients): 40 (52.6) n (%)
Diarrhoea: patients with ≧Grade 3 event ([2]; 76 patients): 8 (10.5) n (%)
Dizziness: patients with Grade 1 or 2 event ([2]; 76 patients): 12 (15.8) n (%)
Dizziness: patients with any event ([2]; 76 patients): 12 (15.8) n (%)
Dizziness: patients with ≧Grade 3 event ([2]; 76 patients): 0 (0.0) n (%)
Dyspnoea: patients with Grade 1 or 2 event ([2]; 76 patients): 15 (19.7) n (%)
Dyspnoea: patients with any event ([2]; 76 patients): 18 (23.7) n (%)
Dyspnoea: patients with ≧Grade 3 event ([2]; 76 patients): 6 (7.9) n (%)
Fatigue: patients with Grade 1 or 2 event ([2]; 76 patients): 41 (53.9) n (%)
Fatigue: patients with any event ([2]; 76 patients): 44 (57.9) n (%)
Fatigue: patients with ≧Grade 3 event ([2]; 76 patients): 6 (7.9) n (%)
Headache: patients with Grade 1 or 2 event ([2]; 76 patients): 19 (25.0) n (%)
Headache: patients with any event ([2]; 76 patients): 19 (25.0) n (%)
Headache: patients with ≧Grade 3 event ([2]; 76 patients): 0 (0.0) n (%)
Infusion site pain: patients with Grade 1 or 2 event ([2]; 76 patients): 15 (19.7) n (%)
Infusion site pain: patients with any event ([2]; 76 patients): 15 (19.7) n (%)
Infusion site pain: patients with ≧Grade 3 event ([2]; 76 patients): 0 (0.0) n (%)
Insomnia: patients with Grade 1 or 2 event ([2]; 76 patients): 12 (15.8) n (%)
Insomnia: patients with any event ([2]; 76 patients): 12 (15.8) n (%)
Insomnia: patients with ≧Grade 3 event ([2]; 76 patients): 0 (0.0) n (%)
Musculoskeletal chest pain: patients with Grade 1 or 2 event ([2]; 76 patients): 11 (14.5) n (%)
Musculoskeletal chest pain: patients with any event ([2]; 76 patients): 13 (17.1) n (%)
Musculoskeletal chest pain: patients with ≧Grade 3 event ([2]; 76 patients): 3 (3.9) n (%)
Myalgia: patients with Grade 1 or 2 event ([2]; 76 patients): 18 (23.7) n (%)
Myalgia: patients with any event ([2]; 76 patients): 19 (25.0) n (%)
Myalgia: patients with ≧Grade 3 event ([2]; 76 patients): 1 (1.3) n (%)
Nausea: patients with Grade 1 or 2 event ([2]; 76 patients): 41 (53.9) n (%)
Nausea: patients with any event ([2]; 76 patients): 43 (56.6) n (%)
Nausea: patients with ≧Grade 3 event ([2]; 76 patients): 6 (7.9) n (%)
Pyrexia: patients with Grade 1 or 2 event ([2]; 76 patients): 12 (15.8) n (%)
Pyrexia: patients with any event ([2]; 76 patients): 12 (15.8) n (%)
Pyrexia: patients with ≧Grade 3 event ([2]; 76 patients): 0 (0.0) n (%)
Urine colour abnormal: patients with Grade 1 or 2 event ([2]; 76 patients): 22 (28.9) n (%)
Urine colour abnormal: patients with any event ([2]; 76 patients): 22 (28.9) n (%)
Urine colour abnormal: patients with ≧Grade 3 event ([2]; 76 patients): 0 (0.0) n (%)
Vision blurred: patients with Grade 1 or 2 event ([2]; 76 patients): 12 (15.8) n (%)
Vision blurred: patients with any event ([2]; 76 patients): 12 (15.8) n (%)
Vision blurred: patients with ≧Grade 3 event ([2]; 76 patients): 0 (0.0) n (%)
Vomiting: patients with Grade 1 or 2 event ([2]; 76 patients): 25 (32.9) n (%)
Vomiting: patients with any event ([2]; 76 patients): 28 (36.8) n (%)
Vomiting: patients with ≧Grade 3 event ([2]; 76 patients): 6 (7.9) n (%)
deaths on study considered related to study drug ([2]; 76 patients): Three
patients who discontinued therapy for adverse events ([2]; 76 patients): 14%
patients with dose reductions for toxicity ([2]; 76 patients): 12%
bilirubin elevation ([2]; Grade 3 or 4): No Grade 3 or 4 bilirubin elevation
ALT elevations ([2]; Grade 3 or greater): 7%
AST elevations ([2]; Grade 3 or greater): 9%
alkaline phosphatase elevations ([2]; Grade 3 or greater): 5%
tolerability ([2]; IPI-504 monotherapy, hydrochloride): generally well tolerated
alanine aminotransferase (ALT) elevations ([2]; any grade): 41%
alkaline phosphatase elevations ([2]; any grade): 62%
aspartate aminotransferase (AST) elevations ([2]; any grade): 49%
ALT (liver function test): patients with Grade 1 or 2 event [2, 3]: 26 (34.2) n (%)
ALT (liver function test): patients with any event [2, 3]: 31 (40.8) n (%)
ALT (liver function test): patients with ≧Grade 3 event [2, 3]: 5 (6.6) n (%)
AST (liver function test): patients with Grade 1 or 2 event [2, 3]: 30 (39.5) n (%)
AST (liver function test): patients with any event [2, 3]: 37 (48.7) n (%)
AST (liver function test): patients with ≧Grade 3 event [2, 3]: 7 (9.2) n (%)
Alkaline phosphatase (liver function test): patients with Grade 1 or 2 event [2, 3]: 43 (56.6) n (%)
Alkaline phosphatase (liver function test): patients with any event [2, 3]: 47 (61.8) n (%)
Alkaline phosphatase (liver function test): patients with ≧Grade 3 event [2, 3]: 4 (5.3) n (%)
Total bilirubin (liver function test): patients with Grade 1 or 2 event [2, 3]: 3 (3.9) n (%)
Total bilirubin (liver function test): patients with any event [2, 3]: 3 (3.9) n (%)
Total bilirubin (liver function test): patients with ≧Grade 3 event [2, 3]: 0 (0.0) n (%)
transient, non-toxic purple-colored urine ([2]; share of patients): About a third
